The values below come from patent US9751837B2, “Kinase inhibitors” (RESPIVERT LIMITED, priority 2014, dated 2017).

GSK 3α, sequence (P49840 whole entry): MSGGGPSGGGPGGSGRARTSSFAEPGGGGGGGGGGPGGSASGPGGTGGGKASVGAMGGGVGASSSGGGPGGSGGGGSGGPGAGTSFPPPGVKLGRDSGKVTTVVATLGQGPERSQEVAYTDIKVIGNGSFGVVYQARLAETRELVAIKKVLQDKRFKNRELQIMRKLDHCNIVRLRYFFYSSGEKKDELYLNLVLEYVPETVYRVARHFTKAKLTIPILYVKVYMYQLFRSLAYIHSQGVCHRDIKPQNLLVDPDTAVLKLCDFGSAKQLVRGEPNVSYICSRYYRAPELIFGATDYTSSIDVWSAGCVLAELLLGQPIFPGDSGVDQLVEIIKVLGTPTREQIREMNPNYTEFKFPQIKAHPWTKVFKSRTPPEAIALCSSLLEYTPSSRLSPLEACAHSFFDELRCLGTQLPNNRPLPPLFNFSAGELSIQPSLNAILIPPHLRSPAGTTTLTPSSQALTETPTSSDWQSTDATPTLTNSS

This assay has as its target GSK 3α (Homo sapiens (Human), UniProt P49840). Nature of the assay: GSK 3α enzyme inhibition (Method 2), Z-LYTE FRET. It counts as biochemical. As to conditions: read-out: IC50 Values for Enzyme Inhibition GSK3α. As for the experimental part:
The enzyme inhibitory activities of compounds disclosed herein are determined by FRET using synthetic peptides labelled with both donor and acceptor fluorophores (Z-LYTE, Invitrogen Ltd., Paisley, UK).
The following two assay variants can be used for determination of GSK 3α inhibition.
The inhibitory activities of compounds of the invention against the GSK 3α enzyme isoform (Invitrogen), are evaluated by determining the level of activation/phosphorylation of the target peptide. The GSK3-α protein (500 ng/mL, 2.5 μL) is mixed with the test compound (2.5 μL at either 4 μg/mL, 0.4 μg/mL, 0.04 μg/mL, or 0.004 μg/mL) for 2 hr at RT. The FRET peptide (8 μM, 2.5 μL), which is a phosphorylation target for GSK3α, and ATP (40 μM, 2.5 μL) are then added to the enzyme/compound mixture and the resulting mixture incubated for 1 hr. Development reagent (protease, 5 μL) is added for 1 hr prior to detection in a fluorescence microplate reader (Varioskan® Flash, ThermoFisher Scientific).
In all cases, the site-specific protease cleaves non-phosphorylated peptide only and eliminates the FRET signal. Phosphorylation levels of each reaction are calculated using the ratio of coumarin emission (donor) over fluorescein emission (acceptor), for which high ratios indicate high phosphorylation and low ratios indicate low phosphorylation levels.
This method follows the same steps as Method 1 above, but utilises a shorter period of mixing of the test compound (105 minutes instead of 2 hours) with the GSK3-α protein. In addition, the concentrations of test compound employed are either 10 μg/mL, 1 μg/mL, 0.1 μg/mL, or 0.01 μg/mL
For orientation: IC50 means the midpoint of a concentration-inhibition curve. As to `COc1cc(Nc2cc(Oc3ccc(NC(=O)Nc4cc(C(C)(C)C)cc(NS(C)(=O)=O)c4OC)c4ccccc34)ccn2)ccc1C(=O)NCCN1CCC(O)CC1` [17(m), 4-[[4-[[4-[[5-tert-butyl-3-(methanesulfonamido)-2-methoxy-phenyl]carbamoylamino]-1-naphthyl]oxy]-2-pyridyl]amino]-N-[2-(4-hydroxy-1-piperidyl)ethyl]-2-methoxy-benzamide], the IC50 was found to be 2770 nM. On to `COc1cc(Nc2cc(Oc3ccc(NC(=O)Nc4cc(C(C)(C)C)cc(NS(C)(=O)=O)c4OC)c4ccccc34)ccn2)ccc1C(=O)NCC(C)(C)N1CCOCC1` [17(n), 4-[[4-[[4-[[5-tert-butyl-3-(methanesulfonamido)-2-methoxy-phenyl]carbamoylamino]-1-naphthyl]oxy]-2-pyridyl]amino]-2-methoxy-N-(2-methyl-2-morpholino-propyl)benzamide], for which the half-inhibitory concentration (IC50) is > 11900 nM.

For the compound `COc1cc(Nc2cc(Oc3ccc(NC(=O)Nc4cc(C(C)(C)C)cc(NS(C)(=O)=O)c4OC)c4ccccc34)ccn2)ccc1S(=O)(=O)N(C)CCN1CCOCC1` [17(o), 1-[5-tert-butyl-3-(methanesulfonamido)-2-methoxy-phenyl]-3-[4-[[2-[3-methoxy-4-[methyl(2-morpholinoethyl)sulfamoyl]anilino]-4-pyridyl]oxy]-1-naphthyl]urea], the IC50 was 3320 nM. `COc1cc(Nc2cc(Oc3ccc(NC(=O)Nc4cc(C(C)(C)C)cc(NS(C)(=O)=O)c4OC)c4ccccc34)ccn2)ccc1C(=O)NCCN1CCCC1` [17(q), 4-[[4-[[4-[[5-tert-butyl-3-(methanesulfonamido)-2-methoxy-phenyl]carbamoylamino]-1-naphthyl]oxy]-2-pyridyl]amino]-2-methoxy-N-(2-pyrrolidin-1-ylethyl)benzamide]: the IC50 is 1980 nM.

As for `COc1cc(Nc2cc(Oc3ccc(NC(=O)Nc4cc(C(C)(C)C)cc(NS(C)(=O)=O)c4OC)c4ccccc34)ccn2)ccc1C(=O)NCCN1CCS(=O)(=O)CC1` [17(r), 4-[[4-[[4-[[5-tert-butyl-3-(methanesulfonamido)-2-methoxy-phenyl]carbamoylamino]-1-naphthyl]oxy]-2-pyridyl]amino]-N-[2-(1,1-dioxo-1,4-thiazinan-4-yl)ethyl]-2-methoxy-benzamide], the IC50 worked out at 4040 nM. As for `COc1cc(Nc2cc(Oc3ccc(NC(=O)Nc4cc(C(C)(C)C)cc(NS(C)(=O)=O)c4OC)c4ccccc34)ccn2)ccc1C(=O)NCCCCC(=O)O` [17(s), 5-[[4-[[4-[[4-[[5-tert-butyl-3-(methanesulfonamido)-2-methoxy-phenyl]carbamoylamino]-1-naphthyl]oxy]-2-pyridyl]amino]-2-methoxy-benzoyl]amino]pentanoic acid], the 50% inhibitory concentration (IC50) was 394 nM. Next, `COc1c(NC(=O)Nc2ccc(Oc3ccnc(Nc4ccc(C(=O)O)cc4)c3)c3ccccc23)cc(C(C)(C)C)cc1NS(C)(=O)=O` [17(t), 4-[[4-[[4-[[5-tert-butyl-3-(methanesulfonamido)-2-methoxy-phenyl]carbamoylamino]-1-naphthyl]oxy]-2-pyridyl]amino]benzoic acid]: 140 nM. Consider `COc1cc(Nc2cc(Oc3ccc(NC(=O)Nc4cc(C(C)(C)C)cc(NS(C)(=O)=O)c4OC)c4ccccc34)ccn2)ccc1C(=O)NCCN1CCNCC1` [17(w), 4-[[4-[[4-[[5-tert-butyl-3-(methanesulfonamido)-2-methoxy-phenyl]carbamoylamino]-1-naphthyl]oxy]-2-pyridyl]amino]-2-methoxy-N-(2-piperazin-1-ylethyl)benzamide], for which the IC50 turned out to be 674 nM.

For the compound `COc1cc(Nc2cc(Oc3ccc(NC(=O)Nc4cc(C(C)(C)C)cc(C(N)=O)c4OC)c4ccccc34)ccn2)ccc1C(=O)NCCN1CCOCC1` [Example 4, 4-((4-((4-(3-(5-(tert-Butyl)-3-carbamoyl-2-methoxyphenyl)ureido)naphthalen-1-yl)oxy)pyridin-2-yl)amino)-2-methoxy-N-(2-morpholinoethyl)benzamide], the IC50 was determined as 2020 nM. As for `COCCOCCOCCNC(=O)c1ccc(Nc2cc(Oc3ccc(NC(=O)Nc4cc(C(C)(C)C)cc(NS(C)(=O)=O)c4OC)c4ccccc34)ccn2)cc1OC` [Example 5, 4-((4-((4-(3-(5-(tert-Butyl)-2-methoxy-3-(methylsulfonamido)phenyl)ureido)naphthalen-1-yl)oxy)pyridin-2-yl)amino)-2-methoxy-N-(2-(2-(2-methoxyethoxy)ethoxy)ethyl)benzamide], the IC50 stood at 1340 nM. In the case of `COCCOCCOCCNC(=O)c1ccc(Nc2cc(Oc3ccc(NC(=O)Nc4cc(C(C)(C)C)cc(C(N)=O)c4OC)c4ccccc34)ccn2)cc1OC` [Example 6, 4-((4-((4-(3-(5-(tert-Butyl)-3-carbamoyl-2-methoxyphenyl)ureido)naphthalen-1-yl)oxy)pyridin-2-yl)amino)-2-methoxy-N-(2-(2-(2-methoxyethoxy)ethoxy)ethyl)benzamide], the IC50 was found to be 1900 nM. In the case of `COc1cc(Nc2cc(Oc3ccc(NC(=O)Nc4cc(C(C)(C)C)cc(NS(C)(=O)=O)c4OC)c4ccccc34)ccn2)ccc1C(=O)NCCN1CC[S+]([O-])CC1` [Example 7, 4-((4-((4-(3-(5-(tert-Butyl)-2-methoxy-3-(methylsulfonamido)phenyl)ureido)naphthalen-1-yl)oxy)pyridin-2-yl)amino)-2-methoxy-N-(2-(1-oxidothiomorpholino)ethyl)benzamide], the IC50 turned out to be 1100 nM.

For the compound `COCCOCCOCCOc1ccc(Nc2cc(Oc3ccc(NC(=O)Nc4cc(C(C)(C)C)cc(NS(C)(=O)=O)c4OC)c4ccccc34)ccn2)cc1C#N` [Example 8, N-(5-(tert-Butyl)-3-(3-(4-((2-((3-cyano-4-(2-(2-(2-methoxyethoxy)ethoxy)ethoxy)phenyl)amino)pyridin-4-yl)oxy)naphthalen-1-yl)ureido)-2-methoxyphenyl)methanesulfonamide], the IC50 turned out to be 3770 nM. `COc1c(NC(=O)Nc2ccc(Oc3ccnc(Nc4ccc(OCCN5CCOCC5)c(C#N)c4)c3)c3ccccc23)cc(C(C)(C)C)cc1NS(C)(=O)=O` [Example 9, N-(5-(tert-Butyl)-3-(3-(4-((2-((3-cyano-4-(2-morpholinoethoxy)phenyl)amino)pyridin-4-yl)oxy)naphthalen-1-yl)ureido)-2-methoxyphenyl)methanesulfonamide]: the IC50 was determined as 4340 nM. For `COc1c(NC(=O)Nc2ccc(Oc3ccnc(Nc4ccc(OCCCN5CCOCC5)c(C#N)c4)c3)c3ccccc23)cc(C(C)(C)C)cc1NS(C)(=O)=O` [Example 10, N-(5-(tert-Butyl)-3-(3-(4-((2-((3-cyano-4-(3-morpholinopropxy)phenyl)amino)pyridin-4-yl)oxy)naphthalen-1-yl)ureido)-2-methoxyphenyl)methanesulfonamide], the concentration for half-maximal inhibition (IC50) was 5560 nM.

As to `COCCOCCOCC[S+]([O-])c1ccc(Nc2cc(Oc3ccc(NC(=O)Nc4cc(C(C)(C)C)cc(NS(C)(=O)=O)c4OC)c4ccccc34)ccn2)cc1OC` (stereo not shown) [Example 11, N-(5-(tert-Butyl)-2-methoxy-3-(3-(4-((2-((3-methoxy-4-((2-(2-(2-methoxyethoxy)ethoxy)ethyl)sulfinyl)phenyl)amino)pyridin-4-yl)oxy)naphthalen-1-yl)ureido)phenyl)methanesulfonamide], the IC50 was 1300 nM.
